# Source: patent publication US20220047594A1, “METHOD FOR TREATING INTERSTITIAL LUNG DISEASE” (ALTAVANT SCIENCES GmbH, priority 2018, published 2022)
# Legend:
# [1] = target: T1, TPH1 (Mus musculus, UniProt P17532); settings: amorphous form, U.S. Pat. No. 9,199,994 Example 63i and Table 27; cited from earlier work
# T1 construct: host or cells: mice (in vivo)
# T1 sequence (P17532 1-447): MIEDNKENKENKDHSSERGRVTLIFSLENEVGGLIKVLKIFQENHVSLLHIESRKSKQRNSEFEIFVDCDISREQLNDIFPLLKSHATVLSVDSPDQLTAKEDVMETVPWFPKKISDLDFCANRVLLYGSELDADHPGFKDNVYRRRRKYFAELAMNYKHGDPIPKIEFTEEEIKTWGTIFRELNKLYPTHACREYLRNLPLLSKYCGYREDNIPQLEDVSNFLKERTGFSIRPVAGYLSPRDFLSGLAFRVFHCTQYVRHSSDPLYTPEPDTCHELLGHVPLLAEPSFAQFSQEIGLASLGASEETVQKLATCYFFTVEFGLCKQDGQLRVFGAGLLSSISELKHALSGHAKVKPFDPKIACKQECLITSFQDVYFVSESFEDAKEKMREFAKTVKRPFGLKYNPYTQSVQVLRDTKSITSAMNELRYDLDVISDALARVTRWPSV
# [2] = system: bleomycin-induced mouse model; settings: inflammatory phase and fibrogenic phase; cited from earlier work
# [3] = stability and shelf life of the crystalline polymorphs of Compound A; type: physicochemical; settings: compared to the crystalline Form 1 polymorph; particularly at temperatures of less than 95° C.
# Text: The compound may be used to prevent or treat IPF in either an amorphous or crystalline form. Two different polymorph crystalline forms are identified by x-ray powder diffraction patterns set forth in FIG. 1 (Form 3) and FIG. 2 (Form 1) as well as Tables 1 and 2 (Form 3) and Tables 3 and 4 (Form 1).
# [4] = system: bleomycin-induced mouse model; settings: cited from earlier work
smiles,measurement,setting,value
"CCOC(=O)[C@@H]1CC2(CCN(c3cc(O[C@H](c4ccc(Cl)cc4-c4ccccc4)C(F)(F)F)nc(N)n3)CC2)CN1 [Compound A, (S)-ethyl 8-(2-amino-6-((R)-1-(5-chloro-[1,1′-biphenyl]-2-yl)-2,2,2-trifluoroethoxy)pyrimidin-4-yl)-2,8-diazaspiro[4.5]decane-3-carboxylate]",efficacy in inhibiting TPH1 in mice,[1],demonstrated
CC1CCN(CC[C@H]2CCCN2S(=O)(=O)c2cccc(O)c2)CC1 [SB-269970],efficacy in attenuating pulmonary fibrosis,[2],attenuating in both the inflammatory phase and the fibrogenic phase
"CCOC(=O)[C@@H]1CC2(CCN(c3cc(O[C@H](c4ccc(Cl)cc4-c4ccccc4)C(F)(F)F)nc(N)n3)CC2)CN1 [crystalline Form 3, (S)-ethyl 8-(2-amino-6-((R)-1-(5-chloro-[1,1′-biphenyl]-2-yl)-2,2,2-trifluoroethoxy)pyrimidin-4-yl)-2,8-diazaspiro[4.5]decane-3-carboxylate]",stability and shelf life,[3],substantially greater stability and shelf life
CCN(CC)C(=O)N[C@H]1C[C@@H]2c3cccc4[nH]cc(c34)C[C@H]2N(C)C1 [terguride],efficacy in attenuating pulmonary fibrosis,[2],attenuating in both the inflammatory phase and the fibrogenic phase
same,"lung function, histology and collagen content","[4]; bleomycin-induced mouse model, treated mice",improved lung function and histology and collagen content
same,tolerability,"[4]; mouse, in vivo",well-tolerated
